pIC50: −log10 of the molar value. ≈ marks a conversion by molar mass, not a printed value.
Columns and labels:
[1] = system: Mycobacterium tuberculosis H37Rv; experiment: Primary screen (Cycle 1): MIC, IC50, IC90 under aerobic conditions; format: cell-based
[2] = Plasma protein binding by equilibrium dialysis; conditions: Human plasma protein binding assay
Caco-2-cell monolayer = experiment: Caco-2 permeability assay
Experimental: The Caco-2 cell layer permeability assay is widely used as a more predictive in vitro model of absorption through the intestinal epithelium. […] For B–A permeability, test compound was added to the basal side of the Caco-2 monolayer and the transport of the compound to the apical side monitored. The amount of compound present in each compartment was quantified by LC-MS/MS.
recovered and analyzed by LC-MS/MS.
3.2. Caco-2 Permeability Assay
feeding at 2-day intervals.
Each experiment included the
contained transport buffer at pH 7.4.
3.3. Cytochrome P450 Inhibition Assay
and was < 0.2%. Samples were run in duplicate. Compounds were incubated with human liver

[3] = human
Mtb = system: Mtb; parameters: method as in PMID 24268596; conditions: reported anti-TB activity of compound 1; cited from earlier work
Mycobacterium abscessus = experiment: MIC, IC50, IC90 against nontuberculous mycobacteria (OD590); format: cell-based; conditions: Mycobacteroides abscessus, M. abscessus; for MIC: read-out: MIC
[4] = system: THP-1 cell line infected with Mtb; experiment: Intracellular activity assay, luminescence; format: cell-based, Mycobacterium tuberculosis; conditions: Mycobacterium tuberculosis, Mtb-infected THP-1 cells, 72 h; for pIC50: read-out: IC50 intracell; for IC90: read-out: IC90 intracell
Experimental: Since the overall efficacy of any anti TB drug will be improved by its ability to traffic into the macrophage phagosome containing replicating bacteria, we evaluated the intracellular activity of compounds[24]. This was measured by using THP-1 cell line infected with Mtb. Infected cells were exposed to compounds for 72 h and viable bacterial counts were measured using luminescence as a measure of intracellular growth.
Assay (Promega) which uses ATP as an indicator of cell viability. Relative luminescent units (RLU) were measured using a Biotek Synergy 4 plate reader. The dose response curve was fitted using the Levenberg–Marquardt algorithm. The IC50 was defined as the compound […]
Intracellular Activity Assay
The activity of compounds against intracellular bacteria was determined by measuring viability in infected THP-1 cell after 3 days in the presence of test compounds. Compounds were prepared as 10-point three-fold serial dilutions in DMSO. The highest concentration of […]
THP-1 cells were cultured in complete RPMI and differentiated into macrophage-like cells using 80 nM PMA overnight at 37°C, 5% CO2. THP-1 cells were infected with a luminescent strain of H37Rv (which constitutively expresses luxABCDE) at a multiplicity of infection of 1 and incubated overnight at 37°C, 5% CO2. Infected cells were recovered using Accutase/EDTA solution, washed twice with PBS to remove extracellular bacteria and seeded into assay pates. Compound dilutions were added to a final DMSO concentration of 0.5%.
Assay plates were incubated for 72 h at 37°C, 5% CO2. Each run included isoniazid as a control. Relative luminescent units (RLU) were measured using a Biotek Synergy 2 plate reader. The dose response curve was fitted using the Levenberg–Marquardt algorithm. The […]
inhibition of growth respectively.
3. Cycle 3 – Absorption, distribution, metabolism, excretion and toxicity (ADMET)
3.1. Plasma Protein Binding Assay
Compounds were added to human plasma at a fixed concentration of 5 µM. The mixture was dialyzed in a RED device (Rapid Equilibrium Dialysis, Pierce) against PBS and incubated on an orbital shaker for 4 h at 37 °C. Aliquots from plasma and PBS sides were collected; an equal volume of PBS was added to the plasma sample, and an equal volume of plasma was added to the PBS sample. Three volumes of methanol (containing the internal binding standard propranolol) was added to precipitate the proteins and release the compound.
Each compound was tested in duplicate. Samples were centrifuged, the supernatant was […]

M. tuberculosis H37Rv = experiment: Cycle 2 repeat of MIC, IC50, IC90 under aerobic conditions (lower starting concentrations); format: cell-based, Mycobacterium tuberculosis; conditions: Mycobacterium tuberculosis, revaluation; for pIC50 / IC90: aerobic; for MIC: repeated at lower starting concentrations, read-out: MIC aerobic condition
[5] = Cytotoxicity, THP-1 cell viability (CellTiter-Glo); conditions: human
Mycobacterium avium = experiment: MIC against nontuberculous mycobacteria (Alamar blue); format: cell-based; conditions: M. avium
Mtb H37Rv = experiment: LORA parallel plates, oxygen-deprived bacteria incubated under aerobic conditions (normal oxygen); format: cell-based, Mycobacterium tuberculosis; conditions: Mycobacterium tuberculosis, H37RV; for MIC: 120 h, oxygen-deprived bacteria, aerobic 5 d
in vitro = conditions: human
[6] = In vitro microsomal stability assay; conditions: human, 1 μM, 37 °C
Excerpt: The stability of compound is expressed as a function of time[41]^,[42]
3.4. In vitro Microsomal Stability Assay
compound to detect NADPH-free degradation. Verapamil and dextromethorphan were
included as control compounds.

[7] = system: human liver cells (HepG2); experiment: HepG2 cytotoxicity (CellTiter-Glo); format: cell-based; conditions: read-out: IC50 (50% loss of viability), 72 h
[8] = M. tuberculosis H37Rv, aerobic conditions, primary screen
[9] = MIC value taken from the first MIC assay
[10] = Mycobacterium tuberculosis, M. tuberculosis H37Rv, aerobic conditions, primary screen

4-[3-(4-Bromophenyl)-1-(ethoxycarbonyl)indolizine-7-yl)-1-(2-(4-methoxyphenyl)-2-oxoethyl)pyridine-1-ium bromide [Compound 6g]
pIC50 [1, 8]: 4.46
IC90 [1, 8]: 46 µM
MIC [1, 8]: 50 µM

CC(C)NC[C@H](O)COc1cccc2ccccc12 (racemic) [Propanolol]
Recovery [2]: 93
Mean A→B Papp (Caco-2-cell monolayer; Caco-2, apical to basolateral): 12.7 10^−6cm/s
Mean B→A Papp (Caco-2-cell monolayer; Caco-2, basolateral to apical): 25 10^−6cm/s
efflux ratio (Caco-2-cell monolayer; Re = Papp (B→A)/Papp (A→B)): 2
Mean plasma fraction bound [3]: 79.3%
Mean plasma fraction unbound [3]: 20.7%

CCOC(=O)c1cc(C(=O)c2ccccc2)n2ccc(-c3cc[n+](CC(=O)c4ccc(OC)cc4)cc3)cc12 [Compound 1]
IC90 (Mtb): 13.1 µM
MIC (Mtb): 3.91 µM

CCOC(=O)c1cc(C(=O)c2ccccc2)n2ccc(-c3cc[n+](CC(=O)c4ccc(C)cc4)cc3)cc12.[Br-] [Compound 6a, 4-(3-Benzoyl-1-(ethoxycarbonyl)indolizine-7-yl)-1-(2-oxo-2-(p-tolyl)ethyl)pyridin-1-ium bromide]
pIC50 (Mycobacterium abscessus): 4.62
IC90 (Mycobacterium abscessus): 37 µM
MIC (Mycobacterium abscessus): > 200 µM
pIC50 [4]: 5.28
IC90 [4]: 15 µM
pIC50 (M. tuberculosis H37Rv): 4.92
IC90 (M. tuberculosis H37Rv): 23 µM
MIC (M. tuberculosis H37Rv): 22 µM
IC50 at 3 days [5]: 2.9 µM
MIC [1, 9]: 14 µM
pIC50 [1, 10]: 4.89
IC90 [1, 10]: 15 µM
MIC [1, 10]: 14 µM
MIC (Mycobacterium avium): 50 µM
MIC (Mycobacterium avium; Mycobacterium avium): 50 µM
pIC50 (Mtb H37Rv): 5.04
IC90 (Mtb H37Rv): 42 µM
MIC (Mtb H37Rv): 100 µM

CCOC(=O)c1cc(C(=O)c2ccccc2)n2ccc(-c3cc[n+](CC(=O)c4cccc(OC)c4)cc3)cc12 [Compound 6b, 4-(3-Benzoyl-1-(ethoxycarbonyl)indolizine-7-yl)-1-(2-(3-methoxyphenyl)-2-oxoethyl)pyridin-1-ium]
pIC50 [1, 10]: 4.41
IC90 [1, 10]: > 50 µM
MIC [1, 10]: > 50 µM
melting point: 255 to 256 °C

CCOC(=O)c1cc(C(=O)c2ccc(Cl)cc2)n2ccc(-c3cc[n+](CC(=O)c4cccc(OC)c4)cc3)cc12 [Compound 6d, 4-(3-(4-Chlorobenzoyl)-1-(ethoxycarbonyl)indolizine-7-yl)-1-(2-(3-methoxyphenyl)-2-oxoethyl)pyridin-1-ium]
pIC50 (Mycobacterium abscessus): 4.09
IC90 (Mycobacterium abscessus): 150 µM
MIC (Mycobacterium abscessus): > 200 µM
pIC50 [4]: 4.96
IC90 [4]: > 50 µM
pIC50 (M. tuberculosis H37Rv): 4.92
IC90 (M. tuberculosis H37Rv): 17 µM
MIC (M. tuberculosis H37Rv): 14 µM
IC50 at 3 days (in vitro): 3.9 µM
MIC [1, 9]: 15 µM
pIC50 [1, 10]: 4.85
IC90 [1, 10]: 16 µM
MIC [1, 10]: 15 µM
MIC (Mycobacterium avium; Mycobacterium avium): 200 µM
pIC50 (Mtb H37Rv): 4.77
IC90 (Mtb H37Rv): 27 µM
MIC (Mtb H37Rv): 43 µM
melting point: 252 to 254 °C

CCOC(=O)c1cc(C(=O)c2ccc(Cl)cc2)n2ccc(-c3cc[n+](CC(=O)c4ccc(F)cc4)cc3)cc12 [Compound 6e, 4-(3-(4-Chlorobenzoyl)-1-(ethoxycarbonyl)indolizine-7-yl)-1-(2-(4-fluorophenyl)-2-oxoethyl)pyridin-1-ium bromide]
pIC50 [1, 10]: < 4.00
IC90 [1, 10]: > 100 µM
MIC [1, 10]: > 100 µM

CCOC(=O)c1cc(C(=O)c2ccc(Br)cc2)n2ccc(-c3cc[n+](CC(=O)c4ccc(C)cc4)cc3)cc12.[Br-] [Compound 6f, 4-(3-(4-Bromobenzoyl)-1-(ethoxycarbonyl)indolizine-7-yl)-1-(2-oxo-2-(p-tolyl)ethyl)pyridin-1-ium bromide]
pIC50 [1, 10]: 4.89
IC90 [1, 10]: 19 µM
MIC [1, 10]: 20 µM
melting point: 283 to 284 °C

CCOC(=O)c1cc(C(=O)c2ccc(Br)cc2)n2ccc(-c3cc[n+](CC(=O)c4cccc(OC)c4)cc3)cc12 [Compound 6h, 4-(3-(4-Bromobenzoyl)-1-(ethoxycarbonyl)indolizine-7-yl)-1-(2-(3-methoxyphenyl)-2-oxoethyl)pyridin-1-ium]
pIC50 (Mycobacterium abscessus): < 3.70
IC90 (Mycobacterium abscessus): > 200 µM
MIC (Mycobacterium abscessus): > 200 µM
pIC50 [4]: 4.89
IC90 [4]: 43 µM
pIC50 (M. tuberculosis H37Rv): 4.82
IC90 (M. tuberculosis H37Rv): 26 µM
MIC (M. tuberculosis H37Rv): 27 µM
IC50 at 3 days (in vitro): 3.8 µM
MIC [1, 9]: 14 µM
pIC50 [1, 10]: 4.89
IC90 [1, 10]: 14 µM
MIC [1, 10]: 14 µM
MIC (Mycobacterium avium; Mycobacterium avium): 200 µM
pIC50 (Mtb H37Rv): 4.80
IC90 (Mtb H37Rv): 24 µM
MIC (Mtb H37Rv): 38 µM
melting point: 256 to 259 °C

CCOC(=O)c1cc(C(=O)c2ccc(Br)cc2)n2ccc(-c3cc[n+](CC(=O)c4ccc(Cl)cc4)cc3)cc12 [Compound 6j]
pIC50 [1, 10]: < 3.70
IC90 [1, 10]: > 200 µM
MIC [1, 10]: > 200 µM

CCOC(=O)c1cc(C(=O)c2ccc(C)cc2)n2ccc(-c3cc[n+](CC(=O)c4ccc([N+](=O)[O-])cc4)cc3)cc12 [Compound 6k]
pIC50 [1, 10]: 3.70
IC90 [1, 10]: > 200 µM
MIC [1, 10]: > 200 µM

CCOC(=O)c1cc(C(=O)c2ccc(OC)cc2)n2ccc(-c3cc[n+](CC(=O)c4ccc(Br)cc4)cc3)cc12 [Compound 6l]
pIC50 [1, 10]: < 3.70
IC90 [1, 10]: > 200 µM
MIC [1, 10]: > 200 µM

COc1ccc2c(c1)[C@]13CCCC[C@@H]1[C@H](C2)N(C)CC3 [Dextromethorphan, reference compound]
microsomal CLint at 1 μM ([6]; s9, NADPH-dependent CLint): 24.3 µL/min/mg
half-life at 1 μM ([6]; s9, NADPH-dependent T1/2, Human): 1.58 h
microsomal CLint at 1 μM ([6]; s9, NADPH-free CLint): < 12.8 µL/min/mg
half-life at 1 μM ([6]; s9, NADPH-free T1/2, Human): > 3 h

NNC(=O)c1ccncc1 [Isoniazid, reference compound]
pIC50 [4]: 6.74
IC90 [4]: 0.27 µM

Cc1ncc([N+](=O)[O-])n1CCO [Metronidazole, reference compound]
pIC50 (Mtb H37Rv): < 3.70
IC90 (Mtb H37Rv): > 200 µM
MIC (Mtb H37Rv): > 200 µM

CO[C@H]1/C=C/O[C@@]2(C)Oc3c(C)c(O)c4c(O)c(c(/C=N/N5CCN(C)CC5)c(O)c4c3C2=O)NC(=O)/C(C)=C\C=C\[C@H](C)[C@H](O)[C@@H](C)[C@@H](O)[C@@H](C)[C@H](OC(C)=O)[C@@H]1C [Rifampicin, reference compound]
pIC50 (Mycobacterium abscessus): 5.64
IC90 (Mycobacterium abscessus): 3.6 µM
MIC (Mycobacterium abscessus): 3.6 µM (≈ 2.96 µg/mL)
pIC50 (M. tuberculosis H37Rv): 8.37
IC90 (M. tuberculosis H37Rv): 0.0092 µM
MIC (M. tuberculosis H37Rv): 0.0071 µM (≈ 0.00584 µg/mL)
pIC50 [1, 10]: 8.44
IC90 [1, 10]: 0.0071 µM
MIC [1, 10]: 0.0065 µM (≈ 0.00535 µg/mL)
MIC (Mycobacterium avium; Mycobacterium avium): 0.098 µM (≈ 0.0806 µg/mL)
pIC50 (Mtb H37Rv): 8.24
IC90 (Mtb H37Rv): 0.011 µM
MIC (Mtb H37Rv): 0.021 µM (≈ 0.0173 µg/mL)

CN[C@@H]1C[C@H]2O[C@@](C)([C@@H]1OC)n1c3ccccc3c3c4c(c5c6ccccc6n2c5c31)C(=O)NC4 [Staurosporine, reference compound]
pIC50 [7]: 8.07

— article PMC6021032, “Antimycobacterial activity of nitrogen heterocycles derivatives: 7-(pyridine-4-yl)-indolizine derivatives. Part VII^8–12” (Journal of Enzyme Inhibition and Medicinal Chemistry, 2017)
